Assay results published in US20240327356A1, “PYRIMIDINE BASED RAS MODULATORS AND USES THEREOF” (QUANTA THERAPEUTICS, INC., priority 2021, published 2024).

Experiments:
[1] = target: KRAS^G12D-FMe.RAF1^RBDCRD complex (Homo sapiens, UniProt P01116, G12D); assay: SHG assay: binding to bilayer-tethered KRAS G12D/RAF1 complex; details: GppNHp-loaded complex on PS bilayer; compound 0.027-40 μM, monitored over 60 min
Protocol: Compounds suspected to carry intrinsic SHG activity were tested in the presence of an unlabeled KRAS^G12D-FMe.RAF1^RBDCRD complex to monitor binding. PS bilayer was prepared from PS-enriched small unilamellar vesicles (SUVs) purchased from Biodesy, Inc. The concentrated SUVs were diluted in TBS buffer containing 5 mM CaCl2 and incubated on a glass-bottom 384-well Biodesy Delta™ assay plate to allow bilayer formation. Equimolar amounts of GppNHp-loaded KRAS^G12D-FMe and RAF1^RBDCRD were mixed and incubated together on PS bilayer overnight at 4° C. The following day, untethered protein was removed by washing with assay buffer (20 mM Hepes, pH 7.4, […], 1 mM TCEP, 5 μM GppNHp). The SHG signal produced by bilayer-tethered complex was ready using the Biodesy Delta™ platform where each well was pulsed with an 800 nm laser and the resulting second harmonic signal intensity at 400 nm was collected. Compounds were diluted into the same assay buffer and applied to the complex at a final concentration range spanning 0.027 μM-40 μM and the SHG intensity of each well was monitored at 5 minute intervals over a 60 minute time period.

[2] = system: Phospho-ERK (Thr202/Tyr204) in MiaPaCa-2 cells; assay: pERK inhibition in MiaPaca-2 cell line (HTRF); format: cell-based; details: Homo sapiens, MIA PaCa-2, 1 hour incubation with compound
Protocol: MiaPaCa-2 cells (ATCC CRL-1420) were cultured in high glucose DMEM (Gibco 11965092) containing 10% fetal bovine serum (Gibco 1993708) and 1× Penicillin/Streptomycin, at 37° C. in a humid atmosphere of 5% CO2 in the air. Cells were plated in tissue-culture treated 96-well plates at a density of 10,000 cells/well and allowed to attach for 16 hours. The medium was then removed, and diluted compounds were added in a final concentration of 0.5% DMSO. After 1 hour of incubation, cells were lysed by the lysis buffer supplied with the Phospho-ERK (Thr202/Tyr204) cellular HTRF kit (Cisbio 64ERKPEH) and transferred to a 384-well low-volume white plate (PerkinElmer 6008280). The cell lysates were treated with the detection reagents supplied with the HTRF kit for 4 hours at ambient temperature in darkness. Two fluorescence intensities at the wavelengths (665 and 620 nm) were measured by the Envision plate reader (Perkin Elmer), and the data were processed and fitted to a 4-parameter logistic model for IC50 calculation (GraphPad Prism 9).

Structure (SMILES) | EC50 [1] [µM] | IC50 [2] [µM]
N#CC1(C(=O)NCc2cnc(-c3ccc(Cl)c(C(F)(F)F)c3)nc2N2CCC(F)(CN)C2)CC1 (stereo not shown) [Compound 47] | 1 to 10 | 1 to 10
N[C@@H]1CN(c2nc(-c3ccc(Cl)c(C(F)(F)F)c3)ncc2C2=CCNC2)C[C@H]1O [Compound 40] | 0.1 to 1 | 1 to 10
N#CC1(C(=O)NCc2cnc(-c3ccc(Cl)c(C(F)(F)F)c3)nc2OC2CNC2)CC1 [Compound 39] | 1 to 10 | 1 to 10
Cc1ccc(-c2ncc(CNC(=O)C3(F)CC3)c(N3CC(CN)C3)n2)cc1Cl [Compound 101] | 10 to 50 | 1 to 10
NCC1CCN(c2nc(-c3ccc(Cl)c(Cl)c3)ncc2C2=CCNC2)C1 (stereo not shown) [Compound 10] | 1 to 10 | 1 to 10
NC[C@@H]1CCCN1c1nc(-c2ccc(Cl)c(C(F)(F)F)c2)ncc1C1=CCNC1 [Compound 31] | < 0.1 | 1 to 10
N[C@@H]1CN(c2nc(-c3ccc(Cl)cc3NC(=O)C3(F)CC3)ncc2C2=CCNC2)C[C@H]1O [Compound 44] | 1 to 10 | 1 to 10
N#CC1(C(=O)NCc2cnc(-c3ccc(Cl)c(C(F)(F)F)c3)nc2N2C[C@@H](N)[C@H](O)C2)CC1 [Compound 37] | 10 to 50 | 1 to 10
COC(=O)NCc1cnc(-c2ccc(C)c(Cl)c2)nc1N1CCC(CN)C1 (stereo not shown) [Compound 60] | 1 to 10 | 1 to 10
N#CC1(C(=O)NCc2cnc(-c3ccc(C(F)(F)F)c(Cl)c3)nc2N2CCC(CN)C2)CC1 (stereo not shown) [Compound 75] | 1 to 10 | 1 to 10
NCC1CCN(c2nc(-c3ccc(Cl)c(C(F)(F)F)c3)ncc2OC2CCOC2)C1 (stereo not shown) [Compound 12] | 1 to 10 | 1 to 10
C=C(F)C(=O)NCc1cnc(-c2ccc(C)c(Cl)c2)nc1N1CCC(CN)C1 (stereo not shown) [Compound 76] | 1 to 10 | 1 to 10
N[C@H]1CN(c2nc(-c3ccc(Cl)c(C(F)(F)F)c3)ncc2C2=CCNC2)C[C@@H]1O [Compound 61] | 1 to 10 | 1 to 10
N#CC1(C(=O)NCc2cnc(-c3ccc(Cl)c(C(F)(F)F)c3)nc2N2CCC(N)CC2)CC1 [Compound 48] | 1 to 10 | 1 to 10
Cc1ccc(-c2ncc(CNC(=O)C3(F)CNC3)c(N3CCC(CN)C3)n2)cc1Cl (stereo not shown) [Compound 102] | 1 to 10 | 1 to 10
Cc1ccc(-c2ncc(OCC(=O)NC3CC3)c(N3CCC(CN)C3)n2)cc1Cl (stereo not shown) [Compound 126] | 1 to 10 | 1 to 10
N#CC1(C(=O)N2CC=C(c3cnc(-c4ccc(Cl)c(C(F)(F)F)c4)nc3OCCN)C2)CC1 [Compound 36] | 1 to 10 | 1 to 10
NCc1cnc(-c2ccc(Cl)c(C(F)(F)F)c2)nc1N1CC[C@@H](CN)C1 [Compound 1] | 1 to 10 | 10 to 50
CN1CCN(c2nc(-c3ccc(Cl)c(C(F)(F)F)c3)ncc2CNC(=O)C2(C#N)CC2)CC1 [Compound 71] | 1 to 10 | 1 to 10
N#Cc1cc(-c2ncc(C3=CCN(C(=O)C4(C#N)CC4)C3)c(N3CCC(CN)C3)n2)ccc1Cl (stereo not shown) [Compound 30] | 10 to 50 | 1 to 10
N#CC1(C(=O)NCc2cnc(-c3ccc(Cl)c(C(F)(F)F)c3)nc2OC2CCNC2)CC1 (stereo not shown) [Compound 38] | 10 to 50 | 1 to 10
NCC1CCN(c2nc(-c3ccc(Cl)c(C(F)(F)F)c3)ncc2CNC(=O)c2ccccc2)C1 (stereo not shown) [Compound 9] | 1 to 10 | 10 to 50
NCC1CCN(c2nc(-c3ccc(C(F)(F)F)cc3F)ncc2CNC(=O)C2(CN)CC2)C1 (stereo not shown) [Compound 25] | 1 to 10 | 10 to 50
NC[C@H]1CCCN1c1nc(-c2ccc(Cl)c(C(F)(F)F)c2)ncc1C1=CCNC1 [Compound 33] | 1 to 10 | 1 to 10
NCC1CCN(c2nc(-c3ccc(C(F)(F)F)c(Cl)c3)ncc2N2CCNC2=O)C1 (stereo not shown) [Compound 109, 1-[4-[3-(aminomethyl)pyrrolidin-1-yl]-2-[3-chloro-4-(trifluoromethyl)phenyl]pyrimidin-5-yl]imidazolidin-2-one] | 1 to 10 | 1 to 10

Structure (SMILES) | EC50 [1] [µM] | IC50 [2] [µM]
Cc1ccc(-c2ncc(CNC(=O)C3(C#N)CC3)c(N3CCC(F)(CN)C3)n2)cc1Cl (stereo not shown) [Compound 63] | 1 to 10 | 0.1 to 1
NCC1CCN(c2nc(-c3ccc(Cl)cc3NC(=O)C3(F)CC3)ncc2C2=CCNC2)C1 (stereo not shown) [Compound 23] | 1 to 10 | 1 to 10
NC[C@@H]1CCN(c2nc(-c3ccc(Cl)c(C(F)(F)F)c3)ncc2C2=CCNC2)C1 [Compound 2, [(3S)-1-[2-[4-chloro-3-(trifluoromethyl)phenyl]-5-(2,5-dihydro-1H-pyrrol-3-yl)pyrimidin-4-yl]pyrrolidin-3-yl]methanamine] | 0.1 to 1 | 1 to 10
Cc1ccc(-c2ncc(CN3CCNC3=O)c(N3CCC(CN)C3)n2)cc1Cl (stereo not shown) [Compound 119] | 1 to 10 | 1 to 10
Cc1ccc(-c2ncc(C3=CCNC3)c(N3CCC(CN)C3)n2)cc1C(F)(F)F (stereo not shown) [Compound 32] | 0.1 to 1 | 1 to 10
NCCOc1nc(-c2ccc(Cl)c(C(F)(F)F)c2)ncc1C1=CCNC1 [Compound 34, 2-[2-[4-chloro-3-(trifluoromethyl)phenyl]-5-(2,5-dihydro-1H-pyrrol-3-yl)pyrimidin-4-yl]oxyethanamine] | 0.1 to 1 | 1 to 10
N#CC1(C(=O)NCc2cnc(-c3ccc(Cl)c(C(F)(F)F)c3)nc2N2CCC[C@H]2CN)CC1 [Compound 55] | 10 to 50 | 1 to 10
Cc1ccc(-c2ncc(CN3CCCC3=O)c(N3CCC(CN)C3)n2)cc1Cl (stereo not shown) [Compound 122] | 1 to 10 | 1 to 10
N#CC1(C(=O)N2CC=C(c3cnc(-c4ccc(Cl)c(C(F)(F)F)c4)nc3N3CCC(CN)C3)C2)CC1 (stereo not shown) [Compound 29] | 1 to 10 | 1 to 10
Cc1ccc(-c2ncc(CN(C)C(=O)C3(F)CC3)c(N3CCNCC3)n2)cc1Cl [Compound 98] | 1 to 10 | 1 to 10
CCOC(=O)NCc1cnc(-c2ccc(C)c(Cl)c2)nc1N1CCC(CN)C1 (stereo not shown) [Compound 118] | 10 to 50 | 1 to 10
NCC1CCN(c2nc(-c3ccc(Cl)c(C(F)(F)F)c3)ncc2[N+](=O)[O-])C1 (stereo not shown) [Compound 56] | 10 to 50 | 10 to 50
N#CC1(C(=O)NCc2cnc(-c3ccc(Cl)c(C(F)(F)F)c3)nc2OC2CC(N)C2)CC1 (stereo not shown) [Compound 50] | 1 to 10 | 1 to 10
Cc1ccc(-c2ncc(CNC(=O)C3(C)COC3)c(N3CCC(CN)C3)n2)cc1Cl (stereo not shown) [Compound 80] | 10 to 50 | 1 to 10
Cc1ccc(-c2ncc(CNC(=O)C3(C#N)CC3)c(N3CC[C@H](N)C3)n2)cc1Cl [Compound 65] | 1 to 10 | 0.1 to 1
Cc1ccc(-c2ncc(CNC(=O)C3(N)CC3)c(N3CCC(CN)C3)n2)cc1Cl (stereo not shown) [Compound 81] | 10 to 50 | 1 to 10
Cc1ccc(-c2ncc(NC(=O)C3(C#N)CC3)c(N3CCC(CN)C3)n2)cc1Cl (stereo not shown) [Compound 110] | 10 to 50 | 1 to 10
N#Cc1cc(-c2ncc(CNc3ccccc3)c(N3CCC(CN)C3)n2)ccc1C(F)(F)F (stereo not shown) [Compound 45, 5-[4-[3-(aminomethyl)pyrrolidin-1-yl]-5-(anilinomethyl)pyrimidin-2-yl]-2-(trifluoromethyl)benzonitrile] | 1 to 10 | 1 to 10
NC[C@@H]1CCN(c2nc(-c3ccc(Cl)c(C(F)(F)F)c3)ncc2C2CC2)C1 [Compound 14] | 1 to 10 | 10 to 50
NCC1CCN(c2nc(-c3ccc(Cl)c(C(F)(F)F)c3)ncc2CNC(=O)C2(F)CC2)C1 (stereo not shown) [Compound 7] | 1 to 10 | 1 to 10
Cc1ccc(-c2ncc(CNS(=O)(=O)C3CC3)c(N3CCC(CN)C3)n2)cc1Cl (stereo not shown) [Compound 82] | 1 to 10 | 1 to 10
Cc1ccc(-c2ncc(CNC(=O)C3(C#N)CC3)c(C3=CCC(N)CC3)n2)cc1Cl (stereo not shown) [Compound 77] | 1 to 10 | 1 to 10
N[C@@H]1CN(c2nc(-c3ccc(Cl)cc3NC(=O)C3CC3)ncc2C2=CCNC2)C[C@H]1O [Compound 43] | 10 to 50 | 10 to 50
NCC1CCN(c2nc(-c3ccc(Cl)c(C(F)(F)F)c3)ncc2CNCCO)C1 (stereo not shown) [Compound 49, 2-[[4-[3-(aminomethyl)pyrrolidin-1-yl]-2-[4-chloro-3-(trifluoromethyl)phenyl]pyrimidin-5-yl]methylamino]ethanol] | 1 to 10 | 1 to 10
N#CC1(C(=O)NCc2cnc(-c3ccc(Cl)c(C(F)(F)F)c3)nc2N2CCNCC2)CC1 [Compound 54] | 1 to 10 | 1 to 10
